Laboratory results taken from PubChem BioAssay (NCI).
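In this assay, cells in 96-well plates receive the compound at five concentrations for 48 hours. Endpoints are linearly interpolated between the surrounding concentrations. Here, GI50 denotes the concentration required for 50% inhibition of growth. TGI denotes the concentration required for complete inhibition of growth.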

Key:
Assay in all cases: NCI anticancer screen, dose series, 48 h
UACC-62 melanoma = tested on: UACC-62 melanoma
HT29 colon = tested on: HT29 colon
A549 NSCLC = tested on: A549 NSCLC
SF-295 CNS = tested on: SF-295 CNS
HCT-15 colon = tested on: HCT-15 colon
UACC-257 melanoma = tested on: UACC-257 melanoma
HOP-62 NSCLC = tested on: HOP-62 NSCLC
HCC-2998 colon = tested on: HCC-2998 colon
RXF 393 renal = tested on: RXF 393 renal
SK-MEL-2 melanoma = tested on: SK-MEL-2 melanoma

SMILES	TGI (UACC-62 melanoma) [µM]	TGI (HT29 colon) [µM]	TGI (A549 NSCLC) [µM]	TGI (SF-295 CNS) [µM]	TGI (HCT-15 colon) [µM]	TGI (UACC-257 melanoma) [µM]	TGI (HOP-62 NSCLC) [µM]	TGI (HCC-2998 colon) [µM]	TGI (RXF 393 renal) [µM]	TGI (SK-MEL-2 melanoma) [µM]	GI50 (UACC-62 melanoma) [µM]	GI50 (HCC-2998 colon) [µM]	GI50 (HT29 colon) [µM]	GI50 (A549 NSCLC) [µM]	GI50 (SF-295 CNS) [µM]	GI50 (RXF 393 renal) [µM]	GI50 (HCT-15 colon) [µM]	GI50 (UACC-257 melanoma) [µM]	GI50 (SK-MEL-2 melanoma) [µM]	GI50 (HOP-62 NSCLC) [µM]
N#Cc1c(NC(=S)NC(=O)c2ccccc2)nc2c(c1-c1ccccc1)CCC2	> 100	> 100	> 100	> 100	> 100	> 100	> 100													
Nc1n[nH]c(=O)[nH]1	> 100	> 100	> 100	> 100	> 100	> 100	> 100	> 100	> 100	> 100										
O=[Se]([O-])c1ccccc1.O=[Se]([O-])c1ccccc1.[OH3+].[OH3+].[Pt+2]	55.6	14.6	58.8	16.9	28.6	11.8	31.2	55.9	40.6	35.5	13.1	16.6	3.09	12.2	3.42	22.7	6.02	2.96	12.7	18.5
C=CC(=O)Nc1cccc(-c2nc(SC)nc(Nc3ccccc3OC)c2C#N)c1	14.6		5.24	4.46		8.78	6.17	8.66	5.42	8.58	2.81	2.58		2.08	1.95	1.95		2.53	2.56	2.25
COC1OC(=O)[C@H]2O[N+]([O-])=C(C)[C@@H]12 (stereo partly drawn)	> 100	> 100	> 100	> 100	> 100	> 100	> 100	> 100	> 100	> 100										
O=C(O)c1ccc(NC(c2ccccc2)c2ccc3cccnc3c2O)cc1 (stereo not drawn)	36.7	> 100	> 100	> 100	> 100	46.2	> 100	> 74.8	28.8	> 100										
O=C(Nc1ccc(I)cc1C(=O)NCCO)c1cccs1	> 100	> 100	> 100	> 100	> 100	> 100	> 100	> 100	> 100	> 100										
CCC(=O)C(c1ccccc1)c1ccccn1 (stereo not drawn)	> 100	> 100	> 100	> 100	> 100	> 100	> 100	> 100	> 100	> 100										
CSC1=Nc2ccccc2N(C)c2c1c(-c1ccccc1)nn2C	> 100	> 100	> 100	33.6	> 100	> 100		56	> 100	82.7										
Cc1[nH]c(/C=C2\C(=O)Nc3ccc(S(=O)(=O)Cc4c(Cl)cccc4Cl)cc32)c(C)c1C(=O)N1CCC[C@@H]1CN1CCCC1		3.07		2.57	3.51		4.55	3.6		53.1		1.95	1.62		1.19		1.71		12.5	1.99
O=C1CC(=O)N(c2ccccc2)N1/C(=C/c1ccccc1)c1ccccc1	37.3	44.2	> 100	35.6		59.2	54.5	37.3	36.5	69										
CCn1cc(C(c2ccc(Cl)cc2)n2ccnc2)c2cc(Br)ccc21 (stereo not drawn)	25.2	22.3	24	23.8	30.6	31.4	28.6	29	29.9	38.8										
OCC1CCCC(n2cnc3c(=S)nc[nH]c32)O1 (stereo not drawn)	> 100	> 100	> 100	> 100	> 100	> 100	> 100	> 100	> 100	> 100										
